Reference: publication PMC5358388 (Proceedings of the National Academy of Sciences of the …, 2017)
Where two headings read alike, the source gives them in different places.

Experiments:
[1] = test system: cytosolic labile heme in P. falciparum; assay type: cell-based, Plasmodium falciparum
[2] = test system: P. falciparum; test: Growth inhibition of P. falciparum lines by chloroquine; assay type: cell-based; details: Plasmodium falciparum

| SMILES | average Δ[heme], increase in labile heme concentration vs untreated control ([1]; 60 nM chloroquine, four independent experiments, P = 0.002) | lower bound on labile cytosolic heme level ([1]; 60 nM chloroquine, assuming no chloroquine in the cytosol) | upper bound on labile cytosolic heme level ([1]; 60 nM chloroquine, assuming ≥1:1 chloroquine:heme in the cytosol) | IC50 ([2]; read-out: chloroquine IC50 (95% CI), parasites expressing CH49Y) | IC50 ([2]; read-out: chloroquine IC50 (95% CI), parental NF54attB line) | change in labile heme concentration, treated vs untreated parasites ([1]; pyrimethamine 125 and 500 nM, 32 h) |
| --- | --- | --- | --- | --- | --- | --- |
| CCN(CC)CCCC(C)Nc1ccnc2cc(Cl)ccc12 (stereo not drawn) [chloroquine] | +0.86 µM | ~2.8 µM | ~7 µM | 10.3 to 11.3 nM | 8.2 to 9.7 nM | – |
| CCc1nc(N)nc(N)c1-c1ccc(Cl)cc1 [pyrimethamine] | – | – | – | – | – | No increase in labile heme concentration |
